The test system of series [1] is self-complementary strands (5′-XCGCGCG). The series can be described thus: dangling end thermal denaturation studies (base stacking) with self-complementary strands. In kind it is physicochemical. As to conditions: dangling residue X in 5′-XCGCGCG. The procedure: (§1) Thermal Denaturation Studies. After the samples were prepared in melting buffer (1M NaCl, 10 mM phosphate buffer (pH 7.0) with 0.1 mM EDTA), they were heated to 95° C. and allowed to slowly cool at a rate of 1° C./min to 5° C. The melting studies were carried out in Teflon-stoppered 1 cm path length quartz cells on a Varian Cary 1 UV-vis spectophotometer equipped with thermoprogrammer. Absorbance was monitored at 280 nm for stacking and at 260 nm for base pairing. […] The data were analyzed by the melt curve processing program, MeltWin v. 3.0. Melting temperatures (Tm) were determined by computer-fit of the first derivative of absorbance with respect to 1/T. Uncertainty in Tm is estimated at ±0.5° C. based on repetitions of experiments. Free-energy values were derived by two methods: (1) computer-fitting the denaturation data with an algorithm employing linear sloping baselines, using the two-state approximation for melting. Fits were excellent, with χ^−2 values of 10^−6 or better. (2) Van't Hoff thermodynamic parameters were derived from linear plots of 1/Tm vs In[CT] by measuring Tm as a function of concentration.
Sequence Design. We incorporated all five phosphoramidites into three new sequence contexts each for further study of pairing and stacking properties. The first is a self-complementary sequence designed to form a hexamer duplex, with the nonnatural base analogue overhanging (dangling) at the 5′ ends (Table 2). This same sequence context has been used previously in several studies of DNA base stacking. The second and third contexts comprise a pair of 12mer sequences that form duplexes with well-behaved two-state behavior. One strand is pyrimidine-rich, while the other is purine-rich; we substituted each analogue at a central position of each strand to test two widely varied sequence contexts for pairing effects.
Base Stacking. DNA base stacking stability has been correlated with the size of compounds when mono-, bi-, tri-, and tetra-cyclic base analogues were compared. To test this with the present series, which varies in size by a smaller amount, we examined the short self-complementary oligonucleotides by thermal denaturation experiments. The self-complementary duplexes contained the modified nucleosides as a 5′ overhanging base.

Series [2] deals with 12-base pair duplex 5′-CTTTTCXTTCTT / 3′-GAAAAGXAAGAA
The series can be described thus: thermal denaturation, base pairing near the center of a 12-base pair duplex. Format: physicochemical. Particulars: pyrimidine- or purine-rich strand, compared to T. The procedure: as §1
Sequence Design. We incorporated all five phosphoramidites into three new sequence contexts each for further study of pairing and stacking properties. […]

Series [3] has as its system DNA Pol I (Klenow fragment, exo-). Nature of the series: steady-state kinetics of single nucleotide insertions, thymidine analogues in the template. Format: biochemical, E. coli. As to conditions: for Km / Vmax: 37° C.; for Vmax: 10 mM MgCl2, pH 7.5, normalized to lowest enzyme concentration; for rel. efficiency: relative to insertion of dATP opposite T. The procedure: In vitro steady-state kinetics. As polymerase substrates we used 28 mer/23 mer template-primer duplexes having the sequence (5′-ACT GXT CTCCCTATAGTGAGTCGTATTA [SEQ ID NO:1])·(5′-TAATACGACTCACTATAGGGAGA [SEQ ID NO:2]). Kinetics were measured at 37° C. in a buffer containing 10 mM Mg^2+. The primer was 5′ end-labeled and was extended by the polymerase in the presence of a single dNTP species over varied concentration and time. Products of single nucleotide insertions were resolved from unreacted primer by 20% denaturing gel electrophoresis, and were quantitated by autoradiography. Details of the kinetics experiments are given in the Supporting Data.
We chose DNA polymerase I (Klenow fragment, exonuclease-deficient) as an ideal candidate for initial study, as it is enzymatically well-characterized among replicative enzymes, and yet is relatively small and acts as a single subunit. We carried out kinetics studies of single nucleotide insertions in the steady state, using a gel electrophoresis-based assay.
Data for single nucleotide insertion kinetics in the steady-state. The enzyme was the Klenow fragment of DNA pol I from E. coli (exonuclease deficient). Methods are as described above.

For series [4], the system named is normal and bypass (SOS-induced) polymerases in E. coli. Nature of the series: bacterial replication assay: bypass efficiency and fidelity of analogs in single-stranded M13 vector passaged through E. coli. In kind it is cell-based. Particulars: E. coli. An excerpt: Bacterial replication assay. The assay for bypass efficiency fidelity is briefly described in the text.
To ascertain the influence of sub-Angstrom size increases on the template coding properties of the T analogs in vivo, we ligated oligonucleotides containing each analog into a single-stranded M13 vector, which were then passaged through E. coli and scored for bypass efficiency and mutagenesis (fidelity) as described. We chose E. coli deficient in AlkB to eliminate the possibility of metabolization of the H analog, which was subsequently found to have no influence on the results when compared with AlkB-proficient cells. Bypass experiments shown in FIG. 7 were performed in a competitive manner, and efficiencies were evaluated by PCR-based quantitation of successfully replicated progeny DNA. SOS-induction of bypass polymerases by prior irradiation of E. coli with ultraviolet light increased trans-analog synthesis approximately 2-fold for all thymine analogs. […] It is noteworthy that the difference between the match and mismatch efficiency increased in cells expressing induced bypass polymerases: L (0.2), B (8.0), I (17.4), implying higher fidelity for the larger isosteres for bypass polymerases, which may contain larger or looser active sites.

The mark [5] stands for this setting: insertion of dATP opposite template base.
Where [6] appears, read: insertion of dCTP opposite template base.
Where [7] appears, read: insertion of dGTP opposite template base.
[8] abbreviates: insertion of dTTP opposite template base.

These results are taken from patent US7473683B2, “Nonpolar thymidine analogs” (The Board of Trustees of the Leland Stanford Junior …, priority 2005, dated 2009).

Each structure is given as a SMILES string.

With `Cc1ccc(I)cc1I` [I, 2,4-diiodotoluene], in series [1], the “ΔG°37 (van't Hoff)” value was -10.4 ± 0.2 kcal/mol, the “ΔH° (van't Hoff)” value is -55.7 ± 4.4 kcal/mol, the “ΔS° (van't Hoff)” value is −146 ± 14 cal/K · mol and the “ΔΔG° stacking per base” value is 1.30 kcal/mol. Also, the Tm (usually the temperature at the midpoint of the melting transition) in series [1] (5.0 μM DNA strand, 1M NaCl, 10 mM phosphate buffer (pH 7.0), 0.1 mM EDTA, 280 nm) was 53.8 °C. For the same compound, in series [1] (curve fits), the “ΔG°37 (fits)” value is -10.2 ± 0.1 kcal/mol. Also, in series [1] (versus duplex with no dangling residue), the ΔTm – broadly, the shift of the melting midpoint relative to a reference – is 15.2 °C. Moreover, the “pairing stability opposite natural bases” value in series [2] is on record as “least destabilizing”. Also, in series [3] (setting [5]), the Km – broadly, the concentration of substrate that gives half-maximal velocity – worked out at 26 ± 11 µM; the Vmax was 1.3 ± 0.2 % · m in^−1; the rel. efficiency was 3.8 × 10^−3. Also, in series [3] (setting [6]), the Km came out at 20 ± 8 µM, the Vmax stood at 0.036 ± 0.001 % · m in^−1 and the rel. efficiency is given as 1.4 × 10^−4. In addition, in series [3] (setting [7]), the Km is 58 ± 18 µM, the Vmax is recorded as 0.017 ± 0.001 % · m in^−1 and the rel. efficiency was 2.2 × 10^−5. Moreover, in series [3] (setting [8]), the Km was 48 ± 39 µM, the Vmax is on record as 0.085 ± 0.037 % · m in^−1 and the rel. efficiency is 1.4 × 10^−4. For the same compound, the “difference between the match and mismatch efficiency, increase in cells expressing induced bypass polymerases” value in series [4] (SOS-induced bypass polymerases) is 17.4. Further, in series [4] (diminished when bypass polymerases were induced), the single-base deletions entry is reported as “evident”.
